The results in this text go back to patent US20120190707A1, “SELECTIVE INHIBITORS OF AKT AND METHODS OF USING SAME” (priority 2008, published 2012).

In one data set the target is Akt1 (Homo sapiens, UniProt P31749). The experiment in a line: Akt1 inhibition, Z'-LYTE kit fluorescent-enzymatic assay. Format: biochemical. The procedure: Here the top 4000 compounds out of 50000 docked compounds were selected using FlexX and Drugscore (BioSolvIT). The top 4000 docked structures were further evaluated and ranked according to Goldscore and Chemscore functions (CSCORE). A list of common 200 compounds was then selected among ranked top 700 compounds according to both scoring functions (FIG. 1B). […] The remaining 100 compounds were experimentally tested up to 30 μM against Akt1. The inhibitory activity was evaluated for the selected compounds by using Z'-LYTE™ kit assay provided by Invitrogen Corporation (19). […] Corning® 384-well low volume plates (20 μl) were used. The fluorescent-enzymatic assay has been performed following the protocol provided by Invitrogen Corporation, using a fluorescent plate reader (Victor2, Perkin-Elmer). […] C) Lineweaver-Burk Km and Km(app) evaluation for Akt1. Each measurement was performed in triplicate. […] The Ki and the Km(app) were calculated at fixed inhibitor concentrations, as reported in the text. All constant values were definitely evaluated by fitting the data to the Lineweaver-Burk plot; D) Akt1 inhibition assay using GSK-3 as a substrate. Comparison of compounds 1 and 2 (Table 1) with H89 at 10 μM. E) Dose response for compound 1. Akt (10 ng of recombinant enzyme) in 25 μl 1× kinase buffer (25 mM Tris, pH 7.5; 5 mM n-glycerol phosphate; 2 mM dithiothreitol; 0.1 mM Na3VO4; and 10 mM MgCl2), was mixed with 2.5 μl DMSO (1% stock) or MPA-D (100 μM in 1% DMSO). Samples were incubated on ice for 1.5 hours at which time 1 μg of GSK-3 fusion protein (Cell Signaling), which served as the substrate, was added followed by ATP (200 μM) to each reaction mixture. After the suspensions were incubated at 30° C. for 20 min, the reaction was terminated by the addition of 3×SDS sample buffer (187.5 mM Tris-HCl, pH 6.8; 6% SDS; 30% glycerol; 150 mM dithiothreitol; and 0.03% bromophenol blue). The samples were boiled for 5 min, and the proteins were separated on a 12% SDS polyacrylamide gel and subsequently transferred to a nitrocellulose membrane. Membranes were incubated with rabbit polyclonal anti-phospho-GSK-3α/β (Ser21/9) (Cell Signaling).
Akt1, sequence (P31749 whole entry): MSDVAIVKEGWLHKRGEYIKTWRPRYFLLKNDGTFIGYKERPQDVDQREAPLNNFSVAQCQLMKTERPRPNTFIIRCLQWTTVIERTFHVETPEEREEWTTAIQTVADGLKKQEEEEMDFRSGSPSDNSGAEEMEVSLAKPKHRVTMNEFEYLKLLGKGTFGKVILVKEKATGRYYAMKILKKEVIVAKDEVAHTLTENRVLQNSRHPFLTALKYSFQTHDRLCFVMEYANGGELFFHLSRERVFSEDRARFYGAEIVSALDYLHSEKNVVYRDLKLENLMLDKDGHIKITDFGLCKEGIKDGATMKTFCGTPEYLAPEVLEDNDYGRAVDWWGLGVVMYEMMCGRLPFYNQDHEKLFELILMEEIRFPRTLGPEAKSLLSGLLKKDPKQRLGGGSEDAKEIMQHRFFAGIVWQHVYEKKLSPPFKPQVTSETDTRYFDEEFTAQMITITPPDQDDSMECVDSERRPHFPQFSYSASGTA
For these purposes, we initially determined the Km and the Vmax of the enzymatic reaction involving the peptide provided by the Z'-LYTE™ kit assay and Akt1 by varying the concentration of ATP. The above parameters appeared to be 7.9 μM and 0.0205 μmol min^−1 mg^−1, respectively. […] Because all our inhibitors affected the Km rather than the Vmax of the reaction (FIG. 2C), they can be truly considered ATP-competitive inhibitors of Akt1.

For another data set, the system named is AKT. Put plainly: pAKT473 and total AKT by western analysis in UACC 903 (PTEN-) cells. Format: cell-based, human. The procedure:
FIG. 6 describes the effect of BI-69A11 on phosphorylation and total levels of AKT in UACC 903 (PTEN−) cells. (A) UACC903 and the modified clone 29-1 (PTEN+) cells were exposed to 10 micro.M BI-69A11 and 50 micro.M LY294002 (a PI3K inhibitor) and the levels of pAKT473 and total AKT determined by western analysis. […] (SF=Serum Free). (B) BI-69A11 inhibits PRAS40 phosphorylation. UACC903 melanoma cells or 29-1 cells (PTEN+) were subjected to treatment with IGF-1 (20 ng/mL) and the level of PRAS40 phosphorylation was assessed. […] The cells were collected, lysed and levels of pPRAS40 and total PRAS40 determined by western analysis. (C) AKT association with HSP90 is inhibited by BI-69A11. Human melanoma cells were treated with BI-69A11 (10.micro.M) or DMSO control for 4 h, followed by protein preparation and immunoprecipitation using antibodies to pan-AKT. MG132 treatment, when used, initiated 1 h prior to treatment and lasted up to the preparation of proteins (total of 5 h). The right panel depicts analysis of total lysates.
The term “cell lines”, as used herein, unless otherwise indicated, refer to UACC 903 cells and 29-1 cells. The cells were cultured in DMEM, supplemented with 10% FBS and maintained at 37° C. in 5% CO2. Cells were plated to 75% confluency and grown overnight at 37° C. Plates were rinsed twice with a serum-free DMEM medium and the appropriate concentration of the compound was added to the plates. Cells were harvested at different timepoints by scraping (for western blotting) or trypsinization (for cell proliferation assay) where appropriate.
Thus, we set to test the possibility that BI-69A11's ability to inhibit AKT activity may stem from inhibition of AKT protein expression (see data below). We thus assessed whether inhibition of AKT Ser473 phosphorylation coincides with its activity, namely the phosphorylation of known AKT substrates. […] Of note, AKT3, the primarily active isoform of AKT in melanoma cells, effectively phosphorylates PRAS40 (Madhunapantula et al., 2007). […]

For a further data set, the system named is UACC903 melanoma cells. The experiment in a line: CellTiter Blue Cell Viability Assay in UACC903 cells. The note with it: 24 h post-treatment. The class given is cell-based, human. The procedure: UACC903 melanoma cells were treated with vehicle (0 μM) or the indicated concentrations of BI-69A11, BI-83G10, or BI-98C11. 24 h post-treatment, cell viability was determined using the CellTiter Blue Cell Viability Assay (Promega, Madison Wis.) following the manufacturer's directions.

For data set [1] the following is noted: mouse, in vivo.

Entries after “also recorded” stand apart in the source; their conditions may differ. Like-named read-outs stand apart in the source and are kept apart here.

As a reminder, the Ki is the dissociation constant of the complex between target and ligand, obtained from inhibition or displacement. As a reminder, the IC50 is the midpoint of a concentration-inhibition curve. As for `O=C(/C=C/c1nc2ccccc2[nH]1)c1c(O)nc2ccc(Cl)cc2c1-c1ccccc1` [Compound 2, (E)-3-(3-(1H-benzo[d]imidazol-2-yl)acryloyl)-6-chloro-4-phenylquinolin-2(1H)-one], at Akt1, the “IC50 values (in words)” value is given as “low-micromolar range”. For the same compound, the inhibition constant (Ki) at Akt1 (10 μM compound 1, 20 μM compound 2, 50 μM compound 3, increasing ATP, Lineweaver-Burk) was 3.9 µM. The IC50 at Akt1 (AKT1, Example 2 (Forino et al., 2005), read-out: IC50 values) was 2.3 µM. In addition, the IC50 on Akt1 (FIG. 2 legend, read-out: IC50 value) stood at 4.5 µM. Besides, at Akt1 (affected Km rather than Vmax), the “type of inhibition of Akt1” value was “ATP competitive inhibition”. For the same compound, the “levels of pAKT473” value in the data set with AKT (10 micro.M, UACC903 and 29-1 cells, FIG. 6A) is “Reduced levels of pAKT473”. Further, in the data set on AKT (903 cells, 10 micro.M, increasing time after treatment), the “levels of total AKT” value is on record as “reduced levels of total AKT”. In addition, the “levels of pAKT Ser473 / AKT phosphorylation” value in the data set with AKT (UACC 903 cells, listed as BI-69A11) is listed as “dose-dependent decrease; also recorded: effectively blocked”. Also, in the data set on UACC903 melanoma cells, the “viability of UACC903 cells” value is “decreased the viability”. Besides, in data set [1], the “cytokines in the blood, treated vs. control” value is “induction of TNFalpha” and the “toxicity by blood work” value is “lack of toxicity”.
